Data published in the NIST ThermoML archive (doi:10.1016/j.jct.2016.03.026).
“And” between values parts separate entries of the source, which are not always exact repeats. Equal values may be shown once. Numbers after ± are expanded uncertainties.

Test: xn = mol fraction of the nth substance listed
Details: Fluid (supercritical or subcritical phases), Frequency=5 MHz, Pulse-echo method

O=C=O [carbon dioxide] + CO
Details | speed of sound
298.13 K, 40050 kPa, x1 = 0.7534 | 817.8 ± 1.1 m/s
298.13 K, 44960 kPa, x1 = 0.925 | 802 ± 1.1 m/s
298.13 K, 44980 kPa, x1 = 0.925 | 802.5 ± 1.1 m/s
298.13 K, 45000 kPa, x1 = 0.8502 | 812.9 ± 1.1 m/s
298.13 K, 45000 kPa, x1 = 0.925 | 803.5 ± 1.1 m/s
298.13 K, 45020 kPa, x1 = 0.7534 | 848.9 ± 1.1 m/s
298.13 K, 45020 kPa, x1 = 0.925 | 803 ± 1.1 m/s
298.13 K, 49980 kPa, x1 = 0.925 | 832.4 ± 1.1 m/s and 833.5 ± 1.1 m/s
298.13 K, 49990 kPa, x1 = 0.925 | 832.8 ± 1.1 m/s
298.13 K, 50010 kPa, x1 = 0.925 | 833.6 ± 1.1 m/s
298.13 K, 50070 kPa, x1 = 0.7534 | 878.2 ± 1.2 m/s
298.13 K, 50080 kPa, x1 = 0.8502 | 843 ± 1.1 m/s
298.13 K, 54890 kPa, x1 = 0.7534 | 904.5 ± 1.2 m/s
298.13 K, 54910 kPa, x1 = 0.8502 | 869.9 ± 1.1 m/s
298.13 K, 54940 kPa, x1 = 0.925 | 860.9 ± 1.1 m/s
298.13 K, 54950 kPa, x1 = 0.925 | 860.2 ± 1.1 m/s
298.13 K, 54970 kPa, x1 = 0.925 | 861.2 ± 1.1 m/s
298.13 K, 55000 kPa, x1 = 0.925 | 860.7 ± 1.1 m/s
298.13 K, 59950 kPa, x1 = 0.8502 | 896.4 ± 1.2 m/s
298.13 K, 59970 kPa, x1 = 0.925 | 886.8 ± 1.2 m/s
298.13 K, 60000 kPa, x1 = 0.925 | 887 ± 1.2 m/s
298.13 K, 60010 kPa, x1 = 0.925 | 887.7 ± 1.2 m/s
298.13 K, 60020 kPa, x1 = 0.925 | 887.7 ± 1.2 m/s
298.13 K, 60230 kPa, x1 = 0.7534 | 932.1 ± 1.2 m/s
298.13 K, 64680 kPa, x1 = 0.7534 | 953.8 ± 1.2 m/s
298.13 K, 64950 kPa, x1 = 0.925 | 912 ± 1.2 m/s
298.13 K, 64960 kPa, x1 = 0.925 | 911.8 ± 1.2 m/s
298.13 K, 64990 kPa, x1 = 0.925 | 912.4 ± 1.2 m/s
298.13 K, 65010 kPa, x1 = 0.925 | 911.9 ± 1.2 m/s
298.13 K, 65100 kPa, x1 = 0.8502 | 922 ± 1.2 m/s
298.13 K, 69930 kPa, x1 = 0.8502 | 944.8 ± 1.2 m/s
298.13 K, 69960 kPa, x1 = 0.925 | 935.2 ± 1.2 m/s
298.13 K, 69970 kPa, x1 = 0.925 | 935.8 ± 1.2 m/s
298.13 K, 69980 kPa, x1 = 0.925 | 935.3 ± 1.2 m/s
298.13 K, 70000 kPa, x1 = 0.925 | 936 ± 1.2 m/s
298.13 K, 70030 kPa, x1 = 0.7534 | 978.8 ± 1.3 m/s
298.13 K, 74960 kPa, x1 = 0.925 | 957.7 ± 1.2 m/s
298.13 K, 74970 kPa, x1 = 0.925 | 957.9 ± 1.2 m/s and 958.4 ± 1.2 m/s
298.13 K, 75000 kPa, x1 = 0.925 | 958.5 ± 1.2 m/s
298.13 K, 75120 kPa, x1 = 0.8502 | 968.2 ± 1.3 m/s
298.13 K, 75550 kPa, x1 = 0.7534 | 1003.2 ± 1.3 m/s
298.13 K, 79950 kPa, x1 = 0.925 | 979.9 ± 1.3 m/s
298.13 K, 79970 kPa, x1 = 0.925 | 979.7 ± 1.3 m/s
298.13 K, 79990 kPa, x1 = 0.8502 | 989 ± 1.3 m/s
298.13 K, 79990 kPa, x1 = 0.925 | 979.4 ± 1.3 m/s
298.13 K, 80530 kPa, x1 = 0.7534 | 1024.4 ± 1.3 m/s
298.13 K, 89880 kPa, x1 = 0.8502 | 1029.2 ± 1.3 m/s
298.13 K, 89960 kPa, x1 = 0.925 | 1019.7 ± 1.3 m/s
298.13 K, 89980 kPa, x1 = 0.925 | 1020.4 ± 1.3 m/s
298.13 K, 90000 kPa, x1 = 0.925 | 1020 ± 1.3 m/s and 1020.4 ± 1.3 m/s
298.13 K, 90430 kPa, x1 = 0.7534 | 1064.1 ± 1.4 m/s
298.13 K, 99830 kPa, x1 = 0.7534 | 1098.9 ± 1.4 m/s
298.13 K, 99970 kPa, x1 = 0.925 | 1057.9 ± 1.4 m/s
298.13 K, 99990 kPa, x1 = 0.925 | 1057.5 ± 1.4 m/s
298.13 K, 100010 kPa, x1 = 0.8502 | 1067.3 ± 1.4 m/s
298.13 K, 100010 kPa, x1 = 0.925 | 1057.5 ± 1.4 m/s
298.13 K, 100040 kPa, x1 = 0.925 | 1057.3 ± 1.4 m/s
298.13 K, 109890 kPa, x1 = 0.8502 | 1102.7 ± 1.4 m/s
298.13 K, 109950 kPa, x1 = 0.925 | 1092.7 ± 1.4 m/s
298.13 K, 109980 kPa, x1 = 0.925 | 1093.2 ± 1.4 m/s
298.13 K, 109990 kPa, x1 = 0.925 | 1092.8 ± 1.4 m/s and 1093.2 ± 1.4 m/s
298.13 K, 110320 kPa, x1 = 0.7534 | 1136.1 ± 1.5 m/s
298.13 K, 119500 kPa, x1 = 0.8502 | 1135.1 ± 1.5 m/s
298.13 K, 119930 kPa, x1 = 0.925 | 1126 ± 1.4 m/s
298.13 K, 119960 kPa, x1 = 0.925 | 1126.1 ± 1.4 m/s
298.13 K, 119990 kPa, x1 = 0.925 | 1125.8 ± 1.4 m/s
298.13 K, 120000 kPa, x1 = 0.925 | 1126 ± 1.4 m/s
298.13 K, 120120 kPa, x1 = 0.7534 | 1168.5 ± 1.5 m/s
298.13 K, 129960 kPa, x1 = 0.925 | 1157.1 ± 1.5 m/s
298.13 K, 129970 kPa, x1 = 0.925 | 1157.2 ± 1.5 m/s and 1157.6 ± 1.5 m/s
298.13 K, 130000 kPa, x1 = 0.925 | 1157.5 ± 1.5 m/s
298.13 K, 139110 kPa, x1 = 0.7534 | 1226.8 ± 1.6 m/s
298.13 K, 139980 kPa, x1 = 0.925 | 1186.8 ± 1.5 m/s and 1187.3 ± 1.5 m/s
298.13 K, 139990 kPa, x1 = 0.925 | 1187.1 ± 1.5 m/s
298.13 K, 140030 kPa, x1 = 0.925 | 1187.4 ± 1.5 m/s
298.13 K, 140060 kPa, x1 = 0.8502 | 1198.2 ± 1.5 m/s
298.13 K, 149950 kPa, x1 = 0.925 | 1215.3 ± 1.6 m/s and 1215.7 ± 1.6 m/s
298.13 K, 149960 kPa, x1 = 0.925 | 1215.5 ± 1.6 m/s
298.13 K, 149990 kPa, x1 = 0.925 | 1215.1 ± 1.6 m/s
298.13 K, 159590 kPa, x1 = 0.7534 | 1284.3 ± 1.6 m/s
298.13 K, 159960 kPa, x1 = 0.925 | 1242.8 ± 1.6 m/s
298.13 K, 159970 kPa, x1 = 0.925 | 1242.8 ± 1.6 m/s
298.13 K, 159980 kPa, x1 = 0.925 | 1242.2 ± 1.6 m/s
298.13 K, 159990 kPa, x1 = 0.925 | 1242.6 ± 1.6 m/s
298.13 K, 160550 kPa, x1 = 0.8502 | 1255.2 ± 1.6 m/s
298.13 K, 169970 kPa, x1 = 0.925 | 1268.9 ± 1.6 m/s
298.13 K, 169980 kPa, x1 = 0.925 | 1268.9 ± 1.6 m/s
298.13 K, 169990 kPa, x1 = 0.925 | 1268.1 ± 1.6 m/s
298.13 K, 170010 kPa, x1 = 0.925 | 1268.7 ± 1.6 m/s
298.13 K, 178270 kPa, x1 = 0.8502 | 1301.3 ± 1.7 m/s
298.13 K, 179990 kPa, x1 = 0.925 | 1293.2 ± 1.6 m/s
298.13 K, 180020 kPa, x1 = 0.925 | 1293.8 ± 1.6 m/s and 1294 ± 1.6 m/s
298.13 K, 180060 kPa, x1 = 0.925 | 1294.1 ± 1.6 m/s
298.13 K, 180370 kPa, x1 = 0.7534 | 1338.1 ± 1.7 m/s
298.13 K, 189940 kPa, x1 = 0.925 | 1316.8 ± 1.7 m/s
298.13 K, 189950 kPa, x1 = 0.925 | 1317.9 ± 1.7 m/s
298.13 K, 189970 kPa, x1 = 0.925 | 1317.8 ± 1.7 m/s
298.13 K, 190010 kPa, x1 = 0.925 | 1317.9 ± 1.7 m/s
298.14 K, 44940 kPa, x1 = 0.9803 | 798 ± 1.1 m/s
298.14 K, 50050 kPa, x1 = 0.9803 | 829.6 ± 1.1 m/s
298.14 K, 54980 kPa, x1 = 0.9803 | 857.8 ± 1.1 m/s
298.14 K, 60140 kPa, x1 = 0.9803 | 885.4 ± 1.2 m/s
298.14 K, 64990 kPa, x1 = 0.9803 | 909.9 ± 1.2 m/s
298.14 K, 70210 kPa, x1 = 0.9803 | 935 ± 1.2 m/s
298.14 K, 75300 kPa, x1 = 0.9803 | 958.1 ± 1.2 m/s
298.14 K, 80240 kPa, x1 = 0.9803 | 979.6 ± 1.3 m/s
298.14 K, 89800 kPa, x1 = 0.9803 | 1018.7 ± 1.3 m/s
298.14 K, 100450 kPa, x1 = 0.9803 | 1059.1 ± 1.4 m/s
298.14 K, 109890 kPa, x1 = 0.9803 | 1092.5 ± 1.4 m/s
298.14 K, 120160 kPa, x1 = 0.9803 | 1126.5 ± 1.4 m/s
298.14 K, 130400 kPa, x1 = 0.9803 | 1158.4 ± 1.5 m/s
298.14 K, 139810 kPa, x1 = 0.9803 | 1185.8 ± 1.5 m/s
298.14 K, 150170 kPa, x1 = 0.9803 | 1215.7 ± 1.6 m/s
298.14 K, 160470 kPa, x1 = 0.9803 | 1243.6 ± 1.6 m/s
304.19 K, 24950 kPa, x1 = 0.97 | 621 ± 0.9 m/s
304.19 K, 29960 kPa, x1 = 0.97 | 668.7 ± 1 m/s
304.19 K, 34880 kPa, x1 = 0.97 | 709.6 ± 1 m/s
304.19 K, 39930 kPa, x1 = 0.97 | 747.2 ± 1 m/s
304.19 K, 44970 kPa, x1 = 0.97 | 781.3 ± 1.1 m/s
304.19 K, 50020 kPa, x1 = 0.97 | 812.8 ± 1.1 m/s
304.19 K, 54970 kPa, x1 = 0.97 | 841.5 ± 1.1 m/s
304.19 K, 59970 kPa, x1 = 0.97 | 868.6 ± 1.1 m/s
